Patent publication US7910557B2, “Hair care product” (Maruzen Pharmaceuticals Co., Ltd., priority 2005, dated 2011)

Legend:
[1] = molecular target: T1, testosterone 5α-reductase (Rattus norvegicus, UniProt P24008); test: Test for testosterone 5α-reductase inhibiting action (S-9 rat liver homogenate, GC quantification); type: biochemical
T1 construct: 75 μl of S-9 (rat liver homogenate, Oriental Yeast Co., Ltd.); tissue Oriental Yeast Co., Ltd; host or cells: rat liver S-9 homogenate
T1 sequence (P24008 1-259): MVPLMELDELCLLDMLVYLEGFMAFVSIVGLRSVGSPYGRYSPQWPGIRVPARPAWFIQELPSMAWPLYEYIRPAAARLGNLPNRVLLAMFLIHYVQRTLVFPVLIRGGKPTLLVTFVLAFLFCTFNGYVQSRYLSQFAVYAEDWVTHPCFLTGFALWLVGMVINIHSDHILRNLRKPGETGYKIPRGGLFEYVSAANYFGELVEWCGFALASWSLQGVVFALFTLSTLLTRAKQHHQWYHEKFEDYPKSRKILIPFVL

[2] = test system: BMP-2 gene; test: BMP-2 mRNA expression promotion in HFDPC (RT-PCR); type: cell-based, human; conditions: for mRNA expression promotion rate (%) BMP-2 mRNA: HFDPC, corrected by G3PDH, control = 100
Method: (§1) The FGF-7 growth promoting action, VEGF growth promoting action and BMP-2 growth promoting action of the corosolic acid obtained in producing examples 1 and 2 (samples 1 and 2) were tested as follows.
(§2) Human hair follicle dermal papilla cells (HFDPC) were cultured using a human hair follicle dermal papilla cells growth medium (PCGM), then the cells were retrieved by trypsinization. The retrieved cells were diluted to a cell concentration of 2×10^5 cells/ml using a DMEM medium containing 10% FBS, after which the cells were inoculated in 60 mm-diameter Petri dishes, at a rate of 5 ml, followed by incubation overnight.
(§3) Once incubation was over, the cells were changed to a serum-less DMEM medium to which the samples (sample 1 and 2) had been added after two-hour incubation, then the cells were dissolved in 1 ml of a reagent for RNA extraction (TRIzol, Invitrogen Corporation). After addition of 200 μl of chloroform to the solutions, these were centrifuged (12000 rpm, 4° C., 15 minutes) and the top RNA layer was isolated. The RNA layer was concentrated in isopropanol. The total RNA concentrated and precipitated was dissolved in a TE solution (10 mM Tris-HCl/1 mM EDTA, pH 8.0), and was taken as a total RNA standard (sequence numbers 1 to 3) used in a template of quantitative RT-PCR for measuring the mRNA expression level of the FGF-7 gene, the VEGF gene and the BMP-2 gene. […]
(§4) After synthesizing single-strand DNA from 500 ng of total RNA in a PCR apparatus (TaKaRa PCR Thermal Cycler MP, TAKARA BIO INC.), the FGF-7 gene (sequence no. 4), the VEGF gene (sequence no. 5), the BMP-2 gene (sequence no. 6), and the G3PDH gene as an internal standard were amplified by PCR reaction, from the single-strand DNA, using specific sense primers (sequence nos. 7 to 9) and antisense primers (sequence nos. 10 to 12) of the respective genes, then 10 μl of the amplified product were electrophoresed on 1.2% agarose gel. […] Then the RT-PCR products were quantitatively measured using KODAK 1D Image Analysis Software EDAS290 Version3.5. […]

[3] = test system: FGF-7 gene; test: FGF-7 mRNA expression promotion in HFDPC (RT-PCR); type: cell-based, human; conditions: for mRNA expression promotion rate (%) FGF-7 mRNA: HFDPC, corrected by G3PDH, control = 100
Method: as §1, §2, §3, §4

[4] = test system: VEGF gene; test: VEGF mRNA expression promotion in HFDPC (RT-PCR); type: cell-based, human; conditions: for mRNA expression promotion rate (%) VEGF mRNA: HFDPC, corrected by G3PDH, control = 100
Method: as §1, §2, §3, §4

[5] = test system: Normal human head hair papilla cells; test: Test for hair papilla cell growth promoting action (MTT assay); type: cell-based; conditions: for Hair papilla cell growth promotion rate (%): 4 days, control = 100
Method: Normal human head hair papilla cells were cultured using a papilla cell growth medium (Cell Application Inc.) containing 2% fetal bovine serum (FBS) and proliferation additives, then the cells were retrieved by trypsinization. The retrieved cells were diluted to a cell concentration of 1.0×10^4 cells/ml using a DMEM medium containing 10% FBS, after which the cells were inoculated in a collagen-coated 96-well plate, at a rate of 200 μl per well, followed by incubation for 3 days. After incubation, the medium was removed and then to the wells there were added 200 μl each of a sample solution in which a respective sample had been dissolved in serum-free DMEM. The wells were then incubated for a further 4 days.
Once incubation was over, the medium was removed, and then to the wells there was added 100 μl each of MTT dissolved in serum-free DMEM (final concentration 0.4 mg/ml). After 2 hours of incubation, the blue formazan formed inside the cells was extracted with 100 μl of 2-propanol. The absorbance of the extracts was measured at a 570 nm wavelength. Turbidity was measured at the same time, as absorbance at the 650 nm wavelength. The amount of blue formazan formed was taken as the difference between the two absorbances. As a control, the same measurements were carried out for specimens in which serum-less DMEM was added instead of the sample solutions. The hair papilla cell growth promotion rate (%) was calculated from the obtained results using the formula below. Hair papilla cell growth promotion rate(%)=A/B×100
In the formula, A represents “absorbance upon sample addition”, and B represents “absorbance without sample addition”.

[6] = sample concentration 0.06 μg/ml
[7] = sample concentration 0.25 μg/ml

## C[C@H]1[C@H](C)CC[C@]2(C(=O)O)CC[C@]3(C)C(=CC[C@@H]4[C@@]5(C)C[C@@H](O)[C@H](O)C(C)(C)[C@@H]5CC[C@]43C)[C@H]12 [Sample 1, corosolic acid]
[1]; S-9 rat liver homogenate, 37° C., 30 minutes, by interpolation, read-out: IC50 (sample concentration at which the inhibition rate of testosterone 5α-reductase is 50%) (converted)
  IC50: 1180 µM
[1]; conclusion from Table 1
  testosterone 5α-reductase inhibiting action (in words): excellent testosterone 5α-reductase inhibiting action
[2]; conclusion from Table 3
  promotion of mRNA expression of the BMP-2 gene (in words): promote the mRNA expression
[2]; [6]
  mRNA expression promotion rate (%) BMP-2 mRNA: 105.3 ± 3.8%
[2]; [7]
  mRNA expression promotion rate (%) BMP-2 mRNA: 135.3 ± 5.5%
[3]; conclusion from Table 3
  promotion of mRNA expression of the FGF-7 gene (in words): promote the mRNA expression
[3]; [6]
  mRNA expression promotion rate (%) FGF-7 mRNA: 122.9 ± 8.5%
[3]; [7]
  mRNA expression promotion rate (%) FGF-7 mRNA: 124.8 ± 7.2%
[4]; conclusion from Table 3
  promotion of mRNA expression of the VEGF gene (in words): promote the mRNA expression
[4]; [6]
  mRNA expression promotion rate (%) VEGF mRNA: 121.8 ± 3.5%
[4]; [7]
  mRNA expression promotion rate (%) VEGF mRNA: 106.7 ± 4.5%
[5]; conclusion from Table 2
  hair papilla cell growth promoting action (in words): hair papilla cell growth promoting action
[5]; sample concentration 1.56 μg/ml
  Hair papilla cell growth promotion rate (%): 111.5 ± 2.2%
[5]; sample concentration 6.25 μg/ml
  Hair papilla cell growth promotion rate (%): 106.1 ± 1.4%
